Measurements as given in patent publication US11203598B2, “Compounds for repressing cancer cell growth” (Institute For Cancer Research, priority 2018, dated 2021).

How the values were obtained:
Format in all cases: cell-based, human
DLD-1 cells = assay: colony formation assay; conditions: 50 μM for 24 hours, then 15 days drug-free
Method: (§1) Cells were seeded in 6-well plates at a density of 500 cells per well. Cells were treated with CB002 small molecule for 24 hours. Then, cells were cultured in drug-free complete media for 15 days. During the course of 15 days, the media was changed every 2-3 days. At the end of the two weeks, media was removed, wells were washed twice with Dulbecco's phosphate buffered saline (PBS) and the colonies were fixed and stained with 10% methanol and 0.25% crystal violet (Sigma-Aldrich) for 30 minutes. Wells were then carefully washed with distilled and deionized water and allowed to dry.
(§2) To further validate CB002 as a candidate therapeutic, its capability to affect cell growth was determined by analyzing cancer cell colony formation. Colony formation assays are widely used to determine the ability of a single cell to proliferate and form a colony in culture. This method offers the advantage of elucidating the sensitivity of cells towards cytotoxic agents in a long-term assay that may mimic the response seen in mouse models. […] Referring to FIG. 3, cells were treated with 50 μM of CB002 for a period of 24 hours, at which point media was replaced with complete media for a period of 15 days. Images are from one of three replicates.

SW480 cells = assay: colony formation assay; conditions: 50 μM for 24 hours, then 15 days drug-free
Method: as §1, §2

[1] = system: p73 DLD-1 stable knockdown cells; assay: colony formation assay; conditions: 50 μM for 24 hours, then 15 days drug-free
Method: as §1, §2

WI38 normal cells = assay: apoptosis assay, sub-G1 analysis (propidium iodide, flow cytometry)
Method: Apoptotic cells were quantified by sub-G1 analysis. Cells were seeded at a density of 2.5×10^5 to 5×10^5 in a 6-well plate and treated for 48-72 hours. After treatment, adherent cells were trypsinized and collected along with floating cells, washed with PBS and fixed in 70% ethanol. Cells were then incubated in a Phosphate-citric acid buffer (0.2 M Na2HPO4+0.1 M Citric Acid, pH 7.8) at room temperature for 5 minutes, spun down and resuspended for staining with 50 μg/mL propidium iodide (PI) in the presence of 250 μg/mL pancreatic ribonuclease (RNase A). Sub-G1 analyses were performed using an Epics Elite Epics flow cytometer (Coulter-Beckman).
Cells were seeded out at 1×10^6 cells/well on six well plates and treated with CB002 and Analog 11 at ranging doses with DMSO controls. Cells were harvested after 72 hours of treatment, all cells including floating cells were fixed with ethanol and stained with Propidium Iodide and then analyzed using Epics Elite flow cytometer to measure the DNA content of the stained cells.

## Cn1c(=O)c2[nH]c(Nc3ccccc3)nc2n(C)c1=O [CB002, 8-anilino-1,3-dimethyl-3,7-dihydro-1H-purine-2,6-dione]
DLD-1 cells
  colony formation: significantly decreases colony formation
SW480 cells
  colony formation: significantly decreases colony formation
[1]
  colony formation: significantly decreases colony formation
WI38 normal cells; 96 μM, 48 hours, DMSO control 7.6%
  sub-G1 population: 9.8%
WI38 normal cells; 200 μM, 72 hours
  sub-G1 fraction: relatively unchanged
